Results from patent US8232273B2, “Heterocyclic compounds and methods of use” (Genentech, Inc., priority 2008, dated 2012).

Tests used:
Bcl-xL (GST-Bcl-xL) [1] = molecular target: T1, Bcl-xL (GST-Bcl-xL) (Homo sapiens, UniProt Q07817); experiment: TR-FRET binding assay, competition with F-Bak for the Bcl-xL binding site; conditions: values listed in the order of Table 1, read-out: TR-FRET assay results (Ki), Bcl-xL
Bcl-xL (GST-Bcl-xL) [2] = molecular target: T1, Bcl-xL (GST-Bcl-xL); experiment: AlphaScreen Bcl-xL binding assay, competition with biotinylated Bim peptide; parameters: made in house; conditions: values listed in the order of Table 1; read-out: Alphascreen results (IC50) against the Bcl-xL protein
Text: The measurement of competition of compounds of the invention with Bim26-mer for a Bcl-2 family protein binding site using an Alpha Screen Bcl-xL binding assay:
The BH3 proteins AlphaScreen™ assay was used to identify active small molecules Bcl-2 family protein screen, e.g., Bcl-xL, hmMcl-1 screen.
The beads come in close proximity when the protein and the peptides interact. Donor beads contain a photosensitiser that converts oxygen to an excited form of O2 at an excitation of 680 nm. Energy is transformed from the singlet oxygen and reacts with chemiluminescers on the acceptor bead, resulting in light emission at 520-620 nm. […] With this information, the IC50 of each compound was calculated
GST-Bcl-xL, GST-hmMcl-1 and biotinylated GST proteins were prepared in-house and were stored as stock solutions at −80° C. The biotinylated-Bak, and biotinylated-Bim peptides were purchased from Auspep and were stored as 500 μM stock solutions in 100% DMSO at −80° C. […] DMSO was purchased from AnalaR.
Compounds of the invention were prepared as 10 mM stocks with 100% DMSO on the day prior to performing the assay. […] To achieve a final compound concentration of 1 μM, in a separate matrical plate, 28 μL of 100% DMSO and 2 μL of 10 mM compound was added to a well, mixed well, 2 μL of this solution was taken and added to 38 μL of 100% DMSO. 20 μL of this solution was added to the test matrical plate. Several control compounds were included in the test plates. For the control wells 15 μL 100% DMSO only was added to the appropriate wells of each plate. The compound plates were then serially diluted 2 fold using the MiniTrak. Once titrations were complete, the compound plate was immediately covered with a foil seal to prevent evaporation.
The assay and bead buffers were prepared fresh. Each titrated compound plate was assayed in duplicate. The following volumes were sufficient to run 12 Proxiplates (4 assay plates run in duplicate in each of Bclxl, hmMcl and counter assays)
Protein and Peptide Preparation; and Assay Performance • 1. The assay and bead buffers were used to prepare the acceptor and donor solutions. ALPHASCREEN™ beads are light sensitive and therefore prepared in a darkened room. 2.5 μL of beads were added per 1 mL of buffer. • 2. The volume of protein or peptide to add was calculated using the following formula:
V2=Volume of stock protein/Peptide to add to Acceptor/Donor solution • 3. The assay components were prepared as separate Acceptor and Donor Solutions. The Acceptor Solution contained Acceptor beads and target protein, while the Donor Solution contained Donor beads and biotinylated peptide.
• 4. After the solutions were prepared, they were left to incubate for 30 minutes at room temperature to allow the beads to bind to the protein and the peptide. • 5. 50 μL of Bcl-xL solution, 50 μL of hmMcl-1 solution and 50 μL of biotinylated-GST were added into separate deep wells on an assay plate. A control 50 μL Assay/Bead buffer was added separate well plates (no protein). • 6. 50 μL of Bim solution and 50 μL of Bak solution were added into separate deep well plates. • 7. Transfer 0.3 μL it of sample from the compound plate into each assay plate. • 8. Incubated for 30 mins at RT, then add 5 μL of the Donor solution. After addition of the Donor solution, tapped plates gently and sealed individually with adhesive film. • 9.
The percent inhibition was calculated using the following equation:
[formula] • x=RFU obtained after compound treatment • μ^−=RFU obtained for the negative controls (no protein controls) • μ^+=RFU obtained for the positive controls (DMSO vehicle controls)

T1 sequence (Q07817 whole entry, species assumed): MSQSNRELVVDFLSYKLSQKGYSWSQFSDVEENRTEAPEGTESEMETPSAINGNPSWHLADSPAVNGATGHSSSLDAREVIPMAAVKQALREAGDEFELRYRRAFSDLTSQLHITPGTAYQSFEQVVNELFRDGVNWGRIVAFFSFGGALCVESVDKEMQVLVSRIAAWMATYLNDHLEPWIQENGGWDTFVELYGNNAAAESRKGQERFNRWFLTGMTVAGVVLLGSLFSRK

SMILES: Nc1cccc(OCCCc2sc(N3CCc4cccc(C(=O)Nc5nc6ccccc6s5)c4C3)nc2C(=O)O)c1 [Example 9, 5-(3-(3-aminophenoxy)propyl)-2-(8-(benzo[d]thiazol-2-ylcarbamoyl)-3,4-dihydroisoquinolin-2(1H)-yl)thiazole-4-carboxylic acid]
- Ki (Bcl-xL (GST-Bcl-xL) [1]): 0.07 nM
- IC50 (Bcl-xL (GST-Bcl-xL) [2]): 0.8 nM

SMILES: CN(C)CCOc1cccc(OCCCc2ccc(N3CCc4cccc(C(=O)Nc5nc6ccccc6s5)c4C3)nc2C(=O)O)c1 [Example 113, 6-(8-(benzo[d]thiazol-2-ylcarbamoyl)-3,4-dihydroisoquinolin-2(1H)-yl)-3-(3-(3-(2-(dimethylamino)ethoxy)phenoxy)propyl)picolinic acid]
- Ki (Bcl-xL (GST-Bcl-xL) [1]): 0.2 nM
- IC50 (Bcl-xL (GST-Bcl-xL) [2]): 0.9 nM

SMILES: N#Cc1c(-c2ccc(OCc3sc(N4CCc5cccc(C(=O)Nc6nc7ccccc7s6)c5C4)nc3C(=O)O)cc2)n[nH]c1N [Example 45, 5-((4-(5-amino-4-cyano-1H-pyrazol-3-yl)phenoxy)methyl)-2-(8-(benzo[d]thiazol-2-ylcarbamoyl)-3,4-dihydroisoquinolin-2(1H)-yl)thiazole-4-carboxylic acid]
- Ki (Bcl-xL (GST-Bcl-xL) [1]): 1 nM
- IC50 (Bcl-xL (GST-Bcl-xL) [2]): 4 nM

SMILES: O=C(Nc1nc2ccccc2s1)c1cccc2c1CN(c1ccc(CCCOc3ccccc3)c(C(=O)O)n1)CC2 [Compound 121, 6-(8-(benzo[d]thiazol-2-ylcarbamoyl)-3,4-dihydroisoquinolin-2(1H)-yl)-3-(3-phenoxypropyl)picolinic acid]
- Ki (Bcl-xL (GST-Bcl-xL) [1]): 10.6 nM
- IC50 (Bcl-xL (GST-Bcl-xL) [2]): 136 nM

SMILES: Nc1ccc(OCCCc2sc(N3CCc4cccc(C(=O)Nc5nc6ccccc6s5)c4C3)nc2C(=O)O)cc1 [Example 6, 5-(3-(4-aminophenoxy)propyl)-2-(8-(benzo[d]thiazol-2-ylcarbamoyl)-3,4-dihydroisoquinolin-2(1H)-yl)thiazole-4-carboxylic acid]
- Ki (Bcl-xL (GST-Bcl-xL) [1]): 0.2 nM
- IC50 (Bcl-xL (GST-Bcl-xL) [2]): 2 nM

SMILES: O=C(Nc1nc2ccccc2s1)c1cccc2c1CN(c1ccc(CCCOc3ccnc(Cl)c3)c(C(=O)O)n1)CC2 [Example 109]
- Ki (Bcl-xL (GST-Bcl-xL) [1]): 0.6 nM
- IC50 (Bcl-xL (GST-Bcl-xL) [2]): 10.6 nM

SMILES: CN(C)CCOc1ccc(OCCCc2ccc(N3CCc4cccc(C(=O)Nc5nc6ccccc6s5)c4C3)nc2C(=O)O)cc1 [Compound 132, 6-(8-(benzo[d]thiazol-2-ylcarbamoyl)-3,4-dihydroisoquinolin-2(1H)-yl)-3-(3-(4-(2-(dimethylamino)ethoxy)phenoxy)propyl)picolinic acid]
- Ki (Bcl-xL (GST-Bcl-xL) [1]): 0.18 nM
- IC50 (Bcl-xL (GST-Bcl-xL) [2]): 0.9 nM

SMILES: O=C(O)c1cccc(N2CCc3cccc(C(=O)Nc4nc5ccccc5s4)c3C2)n1 [Compound 120, 6-(8-(benzo[d]thiazol-2-ylcarbamoyl)-3,4-dihydroisoquinolin-2(1H)-yl)picolinic acid]
- Ki (Bcl-xL (GST-Bcl-xL) [1]): 150 nM
- IC50 (Bcl-xL (GST-Bcl-xL) [2]): 310 nM

SMILES: O=C(Nc1nc2ccccc2s1)c1cccc2c1CN(c1nc(C(=O)O)c(CCCn3ccc4cccnc43)s1)CC2 [Example 17, 5-(3-(1H-pyrrolo[2,3-b]pyridin-1-yl)propyl)-2-(8-(benzo[d]thiazol-2-ylcarbamoyl)-3,4-dihydroisoquinolin-2(1H)-yl)thiazole-4-carboxylic acid]
- Ki (Bcl-xL (GST-Bcl-xL) [1]): 4 nM
- IC50 (Bcl-xL (GST-Bcl-xL) [2]): 20 nM

SMILES: CN(C)CC#Cc1ccc(OCCCc2ccc(N3CCc4cccc(C(=O)Nc5nc6ccccc6s5)c4C3)nc2C(=O)O)cc1 [Compound 133, 6-(8-(benzo[d]thiazol-2-ylcarbamoyl)-3,4-dihydroisoquinolin-2(1H)-yl)-3-(3-(4-(3-(dimethylamino)prop-1-ynyl)phenoxy)propyl)picolinic acid]
- Ki (Bcl-xL (GST-Bcl-xL) [1]): 0.023 nM
- IC50 (Bcl-xL (GST-Bcl-xL) [2]): 1.2 nM

SMILES: CN1CCN(c2cc(F)c(OCCCc3sc(N4CCc5cccc(C(=O)Nc6nc7ccccc7s6)c5C4)nc3C(=O)O)cc2F)CC1 [Example 108, 2-(8-(benzo[d]thiazol-2-ylcarbamoyl)-3,4-dihydroisoquinolin-2(1H)-yl)-5-(3-(2,5-difluoro-4-(4-methylpiperazin-1-yl)phenoxy)propyl)thiazole-4-carboxylic acid]
- Ki (Bcl-xL (GST-Bcl-xL) [1]): 0.02 nM
- IC50 (Bcl-xL (GST-Bcl-xL) [2]): 0.4 nM

SMILES: CN(C)CCOc1cnc(-c2ccc(OCCCc3ccc(N4CCc5cccc(C(=O)Nc6nc7ccccc7s6)c5C4)nc3C(=O)O)cc2)nc1 [Example 112, 6-(8-(benzo[d]thiazol-2-ylcarbamoyl)-3,4-dihydroisoquinolin-2(1H)-yl)-3-(3-(4-(5-(2-(dimethylamino)ethoxy)pyrimidin-2-yl)phenoxy)propyl)picolinic acid]
- Ki (Bcl-xL (GST-Bcl-xL) [1]): 0.2 nM
- IC50 (Bcl-xL (GST-Bcl-xL) [2]): 0.45 nM

SMILES: CN(C)c1cccc(OCCCc2sc(N3CCc4cccc(C(=O)Nc5nc6ccccc6s5)c4C3)nc2C(=O)O)c1 [Example 11, 2-(8-(benzo[d]thiazol-2-ylcarbamoyl)-3,4-dihydroisoquinolin-2(1H)-yl)-5-(3-(3-(dimethylamino)phenoxy)propyl)thiazole-4-carboxylic acid]
- Ki (Bcl-xL (GST-Bcl-xL) [1]): 0.1 nM
- IC50 (Bcl-xL (GST-Bcl-xL) [2]): 2 nM

SMILES: O=C(Nc1nc2ccccc2s1)c1cccc2c1CN(c1nc(C(=O)O)c(CCOc3cccc(-n4ncc5cncnc54)c3)s1)CC2 [Example 50, 5-(2-(3-(1H-pyrazolo[3,4-d]pyrimidin-1-yl)phenoxy)ethyl)-2-(8-(benzo[d]thiazol-2-ylcarbamoyl)-3,4-dihydroisoquinolin-2(1H)-yl)thiazole-4-carboxylic acid]
- Ki (Bcl-xL (GST-Bcl-xL) [1]): 2 nM
- IC50 (Bcl-xL (GST-Bcl-xL) [2]): 10 nM

SMILES: O=C(Nc1nc2ccccc2s1)c1cccc2c1CN(c1nc(C(=O)O)c(-c3ccc(CO)cc3)s1)CC2 [Example 34, 2-(8-(benzo[d]thiazol-2-ylcarbamoyl)-3,4-dihydroisoquinolin-2(1H)-yl)-5-(4-(hydroxymethyl)phenyl)thiazole-4-carboxylic acid]
- Ki (Bcl-xL (GST-Bcl-xL) [1]): 4 nM
- IC50 (Bcl-xL (GST-Bcl-xL) [2]): 5 nM

SMILES: N#C/C=C/c1cccc(OCCCc2sc(N3CCc4cccc(C(=O)Nc5nc6ccccc6s5)c4C3)nc2C(=O)O)c1 [Example 30, (E)-2-(8-(benzo[d]thiazol-2-ylcarbamoyl)-3,4-dihydroisoquinolin-2(1H)-yl)-5-(3-(3-(2-cyanovinyl)phenoxy)propyl)thiazole-4-carboxylic acid]
- Ki (Bcl-xL (GST-Bcl-xL) [1]): 0.4 nM
- IC50 (Bcl-xL (GST-Bcl-xL) [2]): 0.3 nM

SMILES: O=C(Nc1nc2ccccc2s1)c1cccc2c1CN(c1nc(C(=O)O)c(CCCn3ccnc3)s1)CC2 [Example 16, 5-(3-(1H-imidazol-1-yl)propyl)-2-(8-(benzo[d]thiazol-2-ylcarbamoyl)-3,4-dihydroisoquinolin-2(1H)-yl)thiazole-4-carboxylic acid]
- Ki (Bcl-xL (GST-Bcl-xL) [1]): 6 nM
- IC50 (Bcl-xL (GST-Bcl-xL) [2]): 10 nM

SMILES: CN1CCN(c2cccc(OCCCc3ccc(N4CCc5cccc(C(=O)Nc6nc7ccccc7s6)c5C4)nc3C(=O)O)c2)CC1 [Example 105, 6-(8-(benzo[d]thiazol-2-ylcarbamoyl)-3,4-dihydroisoquinolin-2(1H)-yl)-3-(3-(3-(4-methylpiperazin-1-yl)phenoxy)propyl)picolinic acid]
- Ki (Bcl-xL (GST-Bcl-xL) [1]): 0.3 nM
- IC50 (Bcl-xL (GST-Bcl-xL) [2]): 2.2 nM

SMILES: O=C(O)c1csc(N2CCc3cccc(C(=O)Nc4nc5ccccc5s4)c3C2)n1 [Example 1, 2-(8-(Benzo[d]thiazol-2-ylcarbamoyl)-3,4-dihydroisoquinolin-2(1H)-yl)thiazole-4-carboxylic acid]
- Ki (Bcl-xL (GST-Bcl-xL) [1]): 77 nM
- IC50 (Bcl-xL (GST-Bcl-xL) [2]): 100 nM

SMILES: CC(C)(C)OC(=O)Nc1cccc(OCCCc2sc(N3CCc4cccc(C(=O)Nc5nc6ccccc6s5)c4C3)nc2C(=O)O)c1 [Example 5, 2-(8-(benzo[d]thiazol-2-ylcarbamoyl)-3,4-dihydroisoquinolin-2(1H)-yl)-5-(3-(3-(tert-butoxycarbonylamino)phenoxy)propyl)thiazole-4-carboxylic acid]
- Ki (Bcl-xL (GST-Bcl-xL) [1]): 1 nM
- IC50 (Bcl-xL (GST-Bcl-xL) [2]): 2 nM

SMILES: CN(C)CCc1ccc(OCCCc2ccc(N3CCc4cccc(C(=O)Nc5nc6ccccc6s5)c4C3)nc2C(=O)O)cc1 [Example 102, 6-(8-(benzo[d]thiazol-2-ylcarbamoyl)-3,4-dihydroisoquinolin-2(1H)-yl)-3-(3-(4-(2-(dimethylamino)ethyl)phenoxy)propyl)picolinic acid]
- Ki (Bcl-xL (GST-Bcl-xL) [1]): 2 nM
- IC50 (Bcl-xL (GST-Bcl-xL) [2]): 20 nM
